According to ChEMBL document CHEMBL1136344, “Green tea catechins as a BACE1 (beta-secretase) inhibitor” (Bioorg Med Chem Lett, 2003):
pIC50, pKi: −log10 of the molar value.

How the values were obtained:
Beta-secretase 1 [1] = molecular target: T1, Beta-secretase 1 (Homo sapiens, UniProt P56817); test: Inhibitory activity against recombinant human Beta-secretase 1
Beta-secretase 1 [2] = molecular target: T1, Beta-secretase 1; test: Inhibition of human Beta-secretase 1

T1 sequence (P56817 whole entry): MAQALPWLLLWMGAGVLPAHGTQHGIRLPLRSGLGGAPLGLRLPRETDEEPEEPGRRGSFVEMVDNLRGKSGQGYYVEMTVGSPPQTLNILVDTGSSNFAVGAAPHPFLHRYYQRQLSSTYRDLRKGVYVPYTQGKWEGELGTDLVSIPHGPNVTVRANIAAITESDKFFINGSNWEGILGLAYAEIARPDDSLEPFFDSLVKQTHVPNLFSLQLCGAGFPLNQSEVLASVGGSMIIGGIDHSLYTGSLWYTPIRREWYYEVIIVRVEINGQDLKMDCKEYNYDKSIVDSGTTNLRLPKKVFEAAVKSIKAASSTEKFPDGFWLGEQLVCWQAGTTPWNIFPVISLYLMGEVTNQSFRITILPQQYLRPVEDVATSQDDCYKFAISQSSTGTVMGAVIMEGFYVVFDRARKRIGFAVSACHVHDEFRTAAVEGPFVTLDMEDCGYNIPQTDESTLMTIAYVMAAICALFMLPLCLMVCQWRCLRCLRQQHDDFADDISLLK

pKi (Beta-secretase 1 [1])	Compound	pIC50 (Beta-secretase 1 [2])
5.28	O=C(O[C@H]1Cc2c(O)cc(O)cc2O[C@H]1c1ccc(O)c(O)c1)c1cc(O)c(O)c(O)c1	5.35
	O=C(OC[C@@H]1O[C@H](OC(=O)c2cc(O)c(O)c(O)c2)[C@@H](OC(=O)c2cc(O)c(O)c(O)c2)[C@H](OC(=O)c2cc(O)c(O)c(O)c2)[C@H]1OC(=O)c1cc(O)c(O)c(O)c1)c1cc(O)c(O)c(O)c1	< 3.80
	Oc1cc(O)c2c(c1)O[C@@H](c1cc(O)c(O)c(O)c1)[C@@H](O)C2	5.62
	O=C(O[C@@H]1O[C@@H]2COC(=O)c3cc(O)c(O)c(O)c3-c3c(cc(O)c(O)c3O)C(=O)OO[C@H]([C@H]1O)[C@@H]2O)c1cc(O)c(O)c(O)c1	< 3.80
	O=C(O[C@@H]1Cc2c(O)cc(O)cc2O[C@H]1c1ccc(O)c(O)c1)c1cc(O)c(O)c(O)c1 [(-)-CATECHINGALLATE]	5.22
	Oc1cc(O)c2c(c1)O[C@H](c1cc(O)c(O)c(O)c1)[C@@H](O)C2 [GALLOCATECHIN]	5.60
